Experimental findings from ChEMBL document CHEMBL2169807, “Analysis of the structural and mechanistic factors in antioxidants that preserve mitochondrial function and confer cytoprotection” (Bioorg Med Chem, 2012) are described below.

Active and inactive are the calls of the source. No cut-off for these calls is given here.

The test system of assay [1] is CCRF-CEM. As to the kind of experiment: Cytoprotection in diethyl maleate-treated human CCRF-CEM cells 2.5 uM incubated for 17 hrs before diethyl maleate challenge by trypan blue dye exclusion method (reference value: 18 +/- 10%). Format: functional.
The species entered for assay [2] is Bos taurus. The assay is described as follows: Inhibition of NADH oxidase activity in bovine heart sub-mitochondrial particles assessed as remaining enzyme activity at 10 uM by spectrophotometry relative to untreated control.
In assay [3] the test system is CCRF-CEM. The assay is described as follows: Cytoprotection in diethyl maleate-treated human CCRF-CEM cells 0.1 uM incubated for 17 hrs before diethyl maleate challenge by trypan blue dye exclusion method (reference value: 18 +/- 10%). In kind it is functional.
For assay [4], the species on record is Homo sapiens. The assay is described as follows: Inhibition of lipid peroxidation in diethyl maleate-treated human Friedreich's ataxia lymphocytes at 5 uM pre-incubated for 16 hrs before diethyl maleate challenge by FACS method relative to untreated control. Format: functional.
Assay [5] is filed under the species Homo sapiens. The assay is described as follows: Preservation of mitochondrial membrane potential in diethyl maleate-treated human Friedreich's ataxia lymphocytes at 2.5 uM pre-incubated for 16 hrs before diethyl maleate challenge by FACS method (reference value: 25%). Format: functional.
The test system of assay [6] is CCRF-CEM. The assay is described as follows: Inhibition of diethyl maleate-induced ROS production in human CCRF-CEM cells at 0.25 to 2.5 uM incubated for 16 hrs by DCFH-DA dye staining based FACS method. In kind it is functional, cell-based.
Assay [7] is filed under the species Homo sapiens. As to the kind of experiment: Inhibition of lipid peroxidation in diethyl maleate-treated human Friedreich's ataxia lymphocytes at 2.5 uM pre-incubated for 16 hrs before diethyl maleate challenge by FACS method relative to untreated control. Format: functional.
For assay [8], the species on record is Homo sapiens. The assay is described as follows: Preservation of mitochondrial membrane potential in diethyl maleate-treated human Friedreich's ataxia lymphocytes at 1 uM pre-incubated for 16 hrs before diethyl maleate challenge by FACS method (reference value: 25%). Format: functional. For orientation: In flow cytometry, cells or beads pass a laser one at a time.

Assay [9] deals with CCRF-CEM. As to the kind of experiment: Cytoprotection in diethyl maleate-treated human CCRF-CEM cells 0.5 uM incubated for 17 hrs before diethyl maleate challenge by trypan blue dye exclusion method (reference value: 18 +/- 10%). In kind it is functional.
Assay [10] is filed under the species Homo sapiens. As to the kind of experiment: Preservation of mitochondrial membrane potential in diethyl maleate-treated human Friedreich's ataxia lymphocytes at 0.5 uM pre-incubated for 16 hrs before diethyl maleate challenge by FACS method (reference value: 25%). Format: functional.
The species entered for assay [11] is Bos taurus. As to the kind of experiment: Inhibition of NADH oxidase activity in bovine heart sub-mitochondrial particles assessed as remaining enzyme activity at 1 uM by spectrophotometry relative to untreated control.
The species entered for assay [12] is Bos taurus. As to the kind of experiment: Inhibition of NADH oxidase activity in bovine heart sub-mitochondrial particles assessed as remaining enzyme activity at 5 uM by spectrophotometry relative to untreated control.
Assay [13] can be described thus: Cytoprotection in diethyl maleate-treated human Friedreich's ataxia lymphocytes incubated for 17 hrs before diethyl maleate challenge by trypan blue dye exclusion method. In kind it is functional.

For `Cc1cc(N)nc(CCCCCCCCCCO)c1O`, the Activity stood at 78% in assay [1]; 48% in assay [2]; 28% in [3]; 65% in assay [5]; 50% in assay [8]; 38% in [9]. The Activity in [10] came out at 42%; in [11] it was 74%; in [12] it was 52%. Moreover, the values for the inhibition in assay [4] and in assay [7] were 74% and 62%, respectively. For the same compound, in assay [6], the inhibition – broadly, the share of the control response that was lost under treatment – is “Active”.
`Cc1cc(N(C)C)nc(CCCCCCCCCCO)c1O`: the Activity in assay [1] was found to be 94%; in assay [2] it was 25%; in [3] it was 41%; in assay [5], 73%; in assay [8], 54%; in [9], 59%. Moreover, the Activity worked out at 45% in assay [10], 85% in assay [11] and 42% in assay [12]. Moreover, in assay [13], a half-maximal response (EC50) required 840 nM. Moreover, the figures for the inhibition in assay [4] and in [7] were 82% and 71%, respectively. Moreover, the inhibition entry in assay [6] is “Active”.
With `Cc1nc(N(C)C)nc(CCCCCCCCCCO)c1O`, the Activity in [1] is 94%; in assay [2], 22%; in assay [3], 76%; in [5], 86%; in assay [8] it was 75%; in assay [9], 93%. For the same compound, the Activity was 68% in assay [10], 49% in [11] and 26% in assay [12]. For the same compound, in assay [13], the EC50 (in general, the midpoint of the concentration-response curve) was 380 nM. Further, the figures for the inhibition in assay [4] and in [7] were 91% and 83%, respectively. In assay [6], the inhibition result was “Active”.
For the compound `Cc1cc(N(C)C)nc(C)c1O`, the inhibition in assay [4] was found to be 3.9%; in [7], 3.5%. Also, the Activity in assay [10] amounted to 29%.
With `COC1=C(OC)C(=O)C(CCCCCCCCCCO)=C(C)C1=O` [IDEBENONE], the Activity came out at 88% in assay [1]; 15% in assay [2]; 34% in assay [3]; 75% in [5]; 57% in assay [8]; 49% in [9]. Besides, the Activity amounted to 47% in assay [10], 65% in [11] and 53% in [12]. Also, a half-maximal effect in [13] (EC50) was put at 730 nM. For the same compound, the inhibition came to 77% in assay [4] and 68% in assay [7]. In [6], the inhibition result was “Active”.
As for `Cc1c(N(C)C)nc(CCCCCCCCCCO)c(O)c1C`, the Activity in [1] was determined as 92%; in assay [2], 6%; in [3], 42%; in assay [5] it was 70%; in [8], 75%; in [9] it was 47%. Moreover, the Activity is 60% in assay [10], 27% in [11] and 9% in assay [12]. Besides, the response in [13] was half-maximal at 560 nM (EC50). In addition, the inhibition in assay [4] came out at 97%; in assay [7] it was 87%. Further, the inhibition result in assay [6] was “Active”.
Turning to `Cc1cc(N2C(C)CCC2C)nc(CCCCCCCCCCO)c1O` (stereo unspecified), the Activity in assay [1] is 93%; in assay [2], 27%; in assay [3] it was 88%; in [5] it was 83%; in assay [8], 72%; in assay [9], 90%. The Activity in assay [10] was found to be 66%; in [11], 78%; in assay [12] it was 59%. Moreover, in assay [13], the EC50 was determined as 150 nM. Also, the values for the inhibition in [4], in assay [6] and in assay [7] were 97%, “Dose-dependent effect” and 90%, respectively.
Consider `Cc1cc(-n2c(C)ccc2C)nc(CCCCCCCCCCO)c1O`, for which the Activity in [1] turned out to be 26%; in assay [2] it was 43%; in assay [3], 18%; in [5], 52%; in assay [8], 44%; in assay [9] it was 23%. Moreover, the Activity in [10] came out at 35%; in assay [11], 71%; in assay [12], 49%. Besides, the inhibition was determined as 39% in assay [4] and 20% in assay [7].
